# Results taken from ChEMBL document CHEMBL4251600, “Bioactive products from singlet oxygen photooxygenation of cannabinoids” (Eur J Med Chem, 2018).
# Legend:
# Leishmania donovani = experiment: Antileishmanial activity against Leishmania donovani promastigotes incubated for 48 hrs by alamar blue assay; type: functional, organism-based; conditions: Leishmania donovani, 48 h
# Plasmodium falciparum [1] = experiment: Antiplasmodial activity against chloroquine-resistant Plasmodium falciparum W2 infected in red blood cells incubated for 72 hrs by parasite LDH release based colorimetric assay; type: functional, organism-based; conditions: W2, 72 h
# Staphylococcus aureus [2] = experiment: Antimicrobial activity against Staphylococcus aureus by modified CLSI based method; type: functional, organism-based
# Staphylococcus aureus [3] = experiment: Antimicrobial activity against methicillin-resistant Staphylococcus aureus by modified CLSI based method; type: functional, organism-based
# Pichia kudriavzevii = experiment: Antifungal activity against Candida krusei by modified CLSI based method; type: functional, organism-based; conditions: Pichia kudriavzevii; read-out: IC50
# Plasmodium falciparum [4] = experiment: Antiplasmodial activity against chloroquine-sensitive Plasmodium falciparum D6 infected in red blood cells incubated for 72 hrs by parasite LDH release based colorimetric assay; type: functional, organism-based; conditions: D6, 72 h
# Nakaseomyces glabratus = experiment: Antifungal activity against Candida glabrata by modified CLSI based method; type: functional, organism-based
# Cryptococcus neoformans = experiment: Antifungal activity against Cryptococcus neoformans by alamar blue assay; type: functional, organism-based; conditions: Cryptococcus neoformans
# KB = experiment: Anticancer activity against human KB cells assessed as cell growth inhibition up to 10 ug/ml incubated for 48 hrs by neutral red dye based assay; type: functional
# LLC-PK1 = experiment: Cytotoxicity against pig LLC-PK1 cells assessed as cell growth inhibition incubated for 48 hrs by neutral red dye based assay; set-up: species or system Sus scrofa; conditions: llc-pk1
# SK-OV-3 = experiment: Anticancer activity against human SKOV3 cells assessed as cell growth inhibition up to 10 ug/ml incubated for 48 hrs by neutral red dye based assay; type: functional
# BT-549 = experiment: Anticancer activity against human BT549 cells assessed as cell growth inhibition up to 10 ug/ml incubated for 48 hrs by neutral red dye based assay; type: functional
# SK-MEL = experiment: Anticancer activity against human SK-MEL cells assessed as cell growth inhibition incubated for 48 hrs by neutral red dye based assay; type: functional
compound,measurement,setting,value
C=C1C[C@H]2C3=C(OC(C)(C)[C@@H]2CC1OO)C(=O)C(CCCCC)=CC3=O (stereo in doubt; 25),IC50,Leishmania donovani; read-out: IC50,2.1 µg/mL
same,IC90,Leishmania donovani; read-out: IC90,11 µg/mL
same,IC50,Plasmodium falciparum [1],0.9 µg/mL
same,IC50,Staphylococcus aureus [2],0.91 µg/mL
same,MIC,"Staphylococcus aureus [2]; Staphylococcus aureus, read-out: MIC",2.5 µg/mL
same,IC50,Staphylococcus aureus [3],5.78 µg/mL
same,MIC,Staphylococcus aureus [3]; Staphylococcus aureus,10 µg/mL
same,IC50,Pichia kudriavzevii,17 µg/mL
same,IC50,Plasmodium falciparum [4],1 µg/mL
same,IC50,Nakaseomyces glabratus,Not Active
same,IC50,Cryptococcus neoformans; read-out: IC50,1.4 µg/mL
same,MIC,Cryptococcus neoformans; read-out: MIC,2.5 µg/mL
same,IC50,KB,Not Active
same,IC50,LLC-PK1,9.9 µg/mL
same,IC50,SK-OV-3,Not Active
same,IC50,BT-549,Not Active
same,IC50,SK-MEL,8.65 µg/mL
